From patent US20250213500A1, “PHARMACEUTICAL COMPOSITION FOR IMPROVING LIFE QUALITY OF ELDERLY PEOPLE ON BASIS OF VITAMIN K2, PREPARATION METHOD THEREFOR AND USE THEREOF” (priority 2022, published 2025)

Test system: tumor cells
Test: Tumor inhibition in mice subcutaneously inoculated with tumor cells
Format: in vivo
Details: 10 mg/kg once daily for 15 days; tumor weight vs saline group
Description: A total of 140 mice (equal number of males and females), approximately 3 months old, with a weight range of 15.41-18.47 g, were selected. Mice were subcutaneously inoculated with tumor cells, and their blood samples were drawn 24 hours later to test tumor markers and confirm the success of the mouse model establishment. A total of 126 mice confirmed with cancer (equal number of males and females) were selected and randomly divided into 6 groups, with 21 mice in each group (roughly equal number of males and females). These 6 groups were designated as Experimental Group 1, Experimental Group 2, Experimental Group 3, Experimental Group 4, Experimental Group 5, and Experimental Group 6. […] Tumor inhibition rate was calculated as follows: Tumor Inhibition Rate=(Average Tumor Weight in Control Group−Average Tumor Weight in Experimental Group)/Average Tumor Weight in Control Group.

Row | SMILES | Tumor Inhibition Rate [%]
1 | CCCc1nn(C)c2c(=O)[nH]c(-c3cc(S(=O)(=O)N4CCN(C)CC4)ccc3OCC)nc12 [sildenafil] | 40.55
2 | CC(C)=CCC/C(C)=C/CC/C(C)=C/CC/C(C)=C/CC/C(C)=C/CC/C(C)=C/CC/C(C)=C/CC1=C(C)C(=O)c2ccccc2C1=O [MK-7, vitamin K2 (MK-7)] | 35.67
